# Measured values: US10182981B2, “Method of regulating a skin condition” (priority 2015, dated 2019)
# System: IL-18
# Assay: Evaluation of skin sensitization potential (IL-18 production in HEK)
# Assay type: cell-based, human
# Conditions: HEK lysate, 16 h
# Text: It is possible for a material to not be cytotoxic, and yet be unsafe due to provoking an allergic reaction upon skin contact. Typically, initial exposure to an allergen sensitizes the immune system, and following exposures cause an allergic response. Recent progress in understanding the mechanisms of skin sensitization identified interleukin-18 (IL-18) production in normal human epidermal keratinocytes (HEK) as a useful biomarker for skin contact sensitization (Corsini, et al., “Use of IL-18 Production In a Human Keratinocyte Cell Line to Discriminate Contact Sensitizers from Irritants and Low Molecular Weight Respiratory Allergens.” Toxicol In Vitro. 2009 August; 23(5):789-96; Teunis, et al., “Transfer of a Two-tiered Keratinocyte Assay: IL-18 Production by NCTC2544 to Determine the Skin Sensitizing Capacity and Epidermal Equivalent Assay to Determine Sensitizer Potency.” Toxicol In Vitro. 2013 April; 27(3):1135-50). […] Thus, IL-18 production in HEK was evaluated to determine sensitization potential.
# Normal human adult epidermal keratinocytes (HEK) were cultured as described above for the cytoxicity evaluation. […] The cell lysates were collected, and IL-18 was quantified using Human IL-18 ELISA Kit (Catalog #7620, produced by MBL International Co., Woburn, Mass., USA). […] Fold changes of IL-18 levels between test articles and respective vehicle controls were calculated and compared to pPD. […]
smiles,measurement,setting,value
"Nc1ccc(N)cc1 [benchmark sensitizer, para-phenylenediamine]",IL18 Maximum fold change vs vehicle control,,7.8 fold)
same,IL18 Maximum fold change vs vehicle control,listed as para-phenylenediamine (pPD),significantly induced IL-18
